The values below come from patent publication US10092493B2, “Composition of skin external application for anti-aging” (AMOREPACIFIC CORPORATION, priority 2005, dated 2018).

The test system of assay [1] is MMP-2. Description: Inhibition of MMP-2 biosynthesis after UV irradiation (gelatin zymography). The format is cell-based. The note with it: human keratinocytes, UV-B 30 mJ/cm^2, 10 ppm test substance, 2 days; UV control = 100. How it is done:
(§1) After 24 hours, the plate was irradiated by UV-B at 30 mJ/cm^2. The media were exchanged with new medium containing 10 ppm of each test substance. After 2 days of cultivation, each supernatant was harvested and subjected to the zymography using gelatine gel to obtain produced MMP-2 and MMP-9, quantities of which were then measured by a densitometer.

Assay [2] has as its system MMP-9. As to the kind of experiment: Inhibition of MMP-9 biosynthesis after UV irradiation (gelatin zymography). The format is cell-based. The note with it: human keratinocytes, UV-B 30 mJ/cm^2, 10 ppm test substance, 2 days; UV control = 100. The procedure: as §1
The subject of assay [3] is type IV collagen. As to the kind of experiment: Biosynthesis of type IV collagen in keratinocytes (Dot Blot). The format is cell-based. The conditions noted are these: human keratinocytes, 10 ppm, 24 hours; control = 100. How it is done:
The media were exchanged with new medium containing 10 ppm of each test substance. After 24 hours of cultivation, each supernatant was harvested and subjected to the Dot Blot method to measure the amount of produced type IV collagen.

The test system of assay [4] is type VII collagen. As to the kind of experiment: Biosynthesis of type VII collagen in fibroblasts (Dot Blot). It counts as cell-based. The note with it: human fibroblasts, 10 ppm, 24 hours; control = 100. The procedure:
The media were exchanged with new medium containing 10 ppm of each test substance. After 24 hours of cultivation, each supernatant was harvested and subjected to the Dot Blot method to measure the amount of produced type VII collagen.

In assay [5] the test system is laminin 10/11. Description: Biosynthesis of laminin 10/11 in keratinocytes (Western Blot). The conditions noted are these: human keratinocytes, 10 ppm, 24 hours; control = 100. The format is cell-based.
Description: Human keratinocytes were cultured in a 24-well plate type incubator at a concentration of 5×10^4. The media were exchanged with new medium containing 10 ppm of each test substance. After 24 hours of cultivation, each supernatant was harvested and subjected to the Western Blot method to measure the amount of produced laminin 10/11.
In assay [6] the test system is pro-collagen. Description: Biosynthesis of collagen (pro-collagen ELISA) in fibroblasts. The format is cell-based, Human. The note with it: 48 hours, un-treated control = 100. How it is done:
Human fibroblasts were cultured in a 48-well plate type incubator at a concentration of 10^4. The media were exchanged with new medium (theanine: 1, 10, 100 um) containing each test substance of Table 7 at a concentration of 0.001 μM, 0.01 μM, 0.1 μM, 0.5 μM and 2 μM. After 48 hours of cultivation, each supernatant was harvested and subjected to ELISA (Takara MK101) to measure the amount of produced pro-collagen.
Also, in order to examine the synergic effect of theanine on collagen biosynthesis, theanine 10 μM was added to catechin at different 4 concentrations and the result is shown in Table 8.
Background: An ELISA detects its analyte on a solid surface through an enzyme-linked reagent.

Assay [7] has as its target T1, PPAR-α (Peroxisome Proliferator Activated Receptor-alpha) (Homo sapiens, UniProt Q07869).
T1 construct: expressed in transfected cells; host or cells: CV-1 monkey kidney epithelial cells (ATCC CCL 70)
T1 sequence (Q07869 1-468): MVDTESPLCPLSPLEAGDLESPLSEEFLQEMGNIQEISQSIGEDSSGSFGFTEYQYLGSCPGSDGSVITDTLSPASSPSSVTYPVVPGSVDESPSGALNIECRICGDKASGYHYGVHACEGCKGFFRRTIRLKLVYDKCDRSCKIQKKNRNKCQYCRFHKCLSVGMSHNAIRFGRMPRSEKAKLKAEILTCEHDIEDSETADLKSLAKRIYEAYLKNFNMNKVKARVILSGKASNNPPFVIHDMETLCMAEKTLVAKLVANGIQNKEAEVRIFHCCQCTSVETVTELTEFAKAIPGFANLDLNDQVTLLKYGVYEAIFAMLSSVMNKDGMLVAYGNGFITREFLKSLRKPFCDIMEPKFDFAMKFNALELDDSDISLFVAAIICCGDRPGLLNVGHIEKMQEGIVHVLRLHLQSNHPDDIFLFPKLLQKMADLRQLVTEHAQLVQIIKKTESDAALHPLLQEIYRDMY
Description: Activation of PPAR-α, luciferase reporter in CV-1 cells. It counts as cell-based. The conditions noted are these: 24 hours, negative control and non-treated group = 1.0. The procedure: Monkey kidney epithelial cell line CV-1 (ATCC CCL 70) was subcultured in a DMEM medium containing 10% fetal bovine serum treated with charcol/dextran, which was a phenol red-free medium to remove the effect by estrogen of phenol red.
CV-1 cells were distributed in a 24-well plate type incubator at a concentration of 5×10^4. After 24 hours cultivation, the 3 different plasmids were transient transfected. After 24 hours cultivation, the plate was washed with 1×PBS (Phosphate Buffered Saline) and treated with ligand candidates at various concentrations. After 24 hours cultivation, the plate was washed with 1×PBS and the cells were lyzed with 1×PLB (Passive Lysis Buffer) and measured for luciferase activity using Dual-Luciferase® Reporter Assay System kit.
On the technique in general: Reporter assays use an easily measured gene product as a stand-in for the process of interest.

Assay [8] concerns Tumor Necrosis Factor alpha (TNF-α). As to the kind of experiment: Inhibition of TNF-α biosynthesis after UV irradiation (ELISA). The format is cell-based. The note with it: human keratinocytes, UV-B 30 mJ/cm^2, 10 μM (10 ppm of extract), 6 to 24 hours; UV control = 100. The procedure:
Human keratinocytes were cultured in a 12-well plate type incubator at a concentration of 10^4. The plate was irradiated by UV-B at 30 mJ/cm^2. The media were exchanged with new medium containing 10 μM of each test substance (10 ppm of extract). After 6 to 24 hours of cultivation, the cells were harvested and subjected to ELISA (Pharmingen 555212) to determine the amount of produced tumor necrosis factor α (TNF-α). As the positive control, Wy-14,643 was used.

For assay [9], the system named is Type I Collagenase (MMP-1). Description: Inhibition of type I collagenase (MMP-1) biosynthesis after UV-A irradiation, test substances (ELISA). The format is cell-based. The note with it: new born human fibroblasts, UV-A 15 J/cm^2, 10 μM or 10 ppm, UV negative control = 100; for Type I collagenase biosynthesis (%), UV-A + TNF-α treated group: plus TNF-α 10 ng/ml. The procedure: To describe the experiment method in detail, human fibroblasts isolated from the skin of a new born baby were cultured in a 48-well plate type incubator at a concentration of 10^4. After 24 hours, the plate was irradiated by UV-A at 15 J/cm^2. […] At the second day of cultivation, the supernatants were harvested and subjected to ELISA (AP biotech RPN2610) to determine the amount of produced type I collagenase. As the positive control, Wy-14,643 and retinoic acid (RA) were used.

Assay [10] relates to Type I Collagenase (MMP-1). As to the kind of experiment: Type I collagenase (MMP-1) biosynthesis with UV-A, TNF-α and antibody against TNF-α (ELISA). It counts as cell-based, Human. How it is done:
Human fibroblasts isolated from the skin of new born baby were cultured in a 48-well plate type incubator at a concentration of 10^4. after 24 hours, the plate was irradiated by UV-A at 15 J/cm^2 and antibody against tumor necrosis factor alpha was added thereto in a concentration of 1 ug/ml. At the second day of cultivation, the supernatants were harvested and subjected to ELISA (AP biotech RPN2610) to determine the amount of produced type I collagenase. The result is shown in Table 15 as comparative values, referred to 100 of control which was not treated.

Take `O=C(O[C@@H]1Cc2c(O)cc(O)cc2O[C@H]1c1ccc(O)c(O)c1)c1cc(O)c(O)c(O)c1` [CG, catechin gallate]: the “MMP-2 (%)” value in assay [1] is 53%. Besides, in assay [2], the “MMP-9 (%)” value came to 55%. Also, the “Type IV collagen biosynthesis (%)” value in assay [3] stood at 134%. Besides, the “type VII collagen biosynthesis (%)” value in assay [4] amounted to 124%. Also, the “laminin 10/11 biosynthesis (%)” value in assay [5] amounted to 129%. For the same compound, the Collagen biosynthesis in assay [6] (0.001 μM) was 104.3; in assay [6] (0.01 μM), 118.5; in assay [6] (0.1 μM), 124.9; in [6] (0.5 μM), 118.9; in assay [6] (2 μM), 80.3. Besides, the PPAR-α activity in assay [7] (10 μM) was 1.2; in assay [7] (100 μM), 1.6. Moreover, the “TNF-α biosynthesis (%)” value in assay [8] was determined as 37%. In [9], the “Type I collagenase biosynthesis (%), UV-A + TNF-α treated group” value is 89%. Further, the “Type I collagenase biosynthesis (%), UV-A irradiated group” value in [9] worked out at 53%.

Take TNF-α: the “type I collagenase, UV-A irradiated group, column headed TNF-α treated group” value in assay [10] (UV-A 15 J/cm^2, antibody against TNF-α 1 ug/ml, untreated control = 100 (UV-A without antibody 210)) was 134. Besides, the “type I collagenase, TNF-α treated group, No-Antibody treated group” value in assay [10] (new born human fibroblasts, untreated control = 100) is recorded as 250.

`O=C(O[C@@H]1Cc2c(O)cc(O)cc2O[C@H]1c1cc(O)c(O)c(O)c1)c1cc(O)c(O)c(O)c1` [GCG, gallocatechin gallate]: the “MMP-2 (%)” value in assay [1] worked out at 53%. The “MMP-9 (%)” value in [2] came out at 56%. The “Type IV collagen biosynthesis (%)” value in [3] is reported as 135%. For the same compound, in assay [4], the “type VII collagen biosynthesis (%)” value is reported as 121%. Besides, the “laminin 10/11 biosynthesis (%)” value in assay [5] is reported as 131%. For the same compound, the Collagen biosynthesis in assay [6] (0.001 μM) is reported as 98.9; in assay [6] (0.01 μM), 138.3; in assay [6] (0.1 μM) it was 147.0; in [6] (0.5 μM) it was 157.1; in [6] (2 μM), 75.2. Further, the PPAR-α activity in assay [7] (100 μM) was 2.3. Moreover, the “TNF-α biosynthesis (%)” value in assay [8] was determined as 27%. Moreover, the “Type I collagenase biosynthesis (%), UV-A + TNF-α treated group” value in [9] worked out at 86%. In assay [9], the “Type I collagenase biosynthesis (%), UV-A irradiated group” value is 43%.

For `O=c1c(O)c(-c2cc(O)c(O)c(O)c2)oc2cc(O)cc(O)c12` [Myricetin, myricetin], in assay [1], the “MMP-2 (%)” value came out at 51%. Also, in assay [2], the “MMP-9 (%)” value stood at 55%. Moreover, the “Type IV collagen biosynthesis (%)” value in [3] amounted to 139%. Also, in [4], the “type VII collagen biosynthesis (%)” value worked out at 125%. Besides, in [5], the “laminin 10/11 biosynthesis (%)” value is 132%. The compound further yielded a PPAR-α activity in [7] (10 μM) of 1.7. This compound showed a PPAR-α activity in assay [7] (100 μM) of 1.6. The “TNF-α biosynthesis (%)” value in [8] turned out to be 36%. Further, in [9], the “Type I collagenase biosynthesis (%), UV-A + TNF-α treated group” value is 97% and the “Type I collagenase biosynthesis (%), UV-A irradiated group” value is on record as 52%.

For the compound `O=C(O[C@@H]1Cc2c(O)cc(O)cc2O[C@@H]1c1cc(O)c(O)c(O)c1)c1cc(O)c(O)c(O)c1` [EGCG, epigallocatechin gallate], the “MMP-2 (%)” value in assay [1] is on record as 52%. Further, the “MMP-9 (%)” value in [2] came out at 56%. The “Type IV collagen biosynthesis (%)” value in assay [3] stood at 138%. In addition, the “type VII collagen biosynthesis (%)” value in [4] was 127%. For the same compound, the “laminin 10/11 biosynthesis (%)” value in [5] was 137%. Moreover, the Collagen biosynthesis came to 101.4 in assay [6] (0.001 μM); 154.6 in assay [6] (0.01 μM); 133.8 in assay [6] (0.1 μM); 155.8 in assay [6] (0.5 μM); 78.4 in [6] (2 μM). Besides, the PPAR-α activity in [7] (10 μM) is listed as 1.0; in assay [7] (100 μM), 1.5. In assay [8], the “TNF-α biosynthesis (%)” value was determined as 35%. For the same compound, the “Type I collagenase biosynthesis (%), UV-A + TNF-α treated group” value in [9] turned out to be 88%. In [9], the “Type I collagenase biosynthesis (%), UV-A irradiated group” value was 42%.
